Results as given in patent US10874749B2, “Gene therapies for neurodegenerative disorders targeting ganglioside biosynthetic pathways” (priority 2015, dated 2020).

Columns and labels:
DA uptake = test: Striatal uptake of tritiated dopamine (3H-DA) in striatal homogenates; format: in vivo, mouse; details: 3 minutes
Description: Whole striatal homogenates were exposed to [^3H] DA for 3 minutes in the presence or absence of mazindol to examine the influence of sialidase treatment on DA uptake.
In mouse studies as depicted in FIG. 4, striatal uptake of tritiated dopamine (^3H-DA) was examined. […] Striatal homogenates were incubated with ^3H-DA in the presence (non-specific) or absence (total) of the DA uptake inhibitor mazindol (Maz).

YAC128 mice = details: cited from earlier work
PD patients = test: Randomized, controlled, delayed start clinical study of GM1 in PD patients; format: in vivo, human
Excerpt: The more highly expressed gangliosides in the brain are GM1, GD1a, GD1b, GT1b, and GD3. […] Although GM1 administration has promise as a treatment for PD, it is difficult to source, is currently available only as a natural product extracted and purified from animal brains, and has low ability to cross the blood brain barrier.
The mean (±SE) change from baseline in Early-start (randomized to receive GM1 at start of study) and Delayed-start (randomized to receive placebo at start of study) study subjects and in a standard-of-care comparison group (no interventions). The dashed vertical line at week 24 indicates the end of study Phase I. After that, all subjects received GM1. The dashed vertical line at week 120 indicates the end of study Phase II. The horizontal dashed line indicates baseline level. An increase of score indicates symptom worsening; a decrease in score indicates symptom improvement. *=p<0.0001 Early-start vs. Delayed-start; ^=p<0.05 Early-start vs. Delayed-start

DAergic hES cells = test: Rescue of DAergic hES cells from MPP+ toxicity (TH immunopositive cell count); format: cell-based, human
Description: Human stem cells were differentiated into a dopaminergic (DAergic) phenotype using a well characterized method (Iacovitti et al. 2007 as modified in Cai et al., 2013).
hES cells were plated onto 24 well plates. Cells were pretreated with sialidase, GM1 or standard media for 2 hrs and were then exposed to the mitochondrial toxin MPP^+. Twenty-four hours later, media containing toxin was removed and fresh media containing the appropriate concentration of rescue agent was added. Two days later, cells were fixed, processed for tyrosine hydroxylase (TH) immunocytochemistry and the number of TH immunopositive cells were counted.
FIGS. 3A and 3B depict the protection/rescue of human embryonic stem cells from MPP^+ toxicity. A) The number of tyrosine hydroxylase immunopositive (TH^+) cells was reduced as a result of MPP^+ treatment.
Accordingly, the examples and studies identify that human embryonic stem (hES) cells, when differentiated into dopaminergic neurons, are susceptible to MPP^+ toxicity. However, there are mechanisms that exist that can mitigate the effects of MPP^+ toxicity. Indeed, MPP^+ toxicity in hES cells is mitigated by both GM1 and 0.005 U/mL VCS. Therefore, treatment with a sialidase, such as sialidase Neu3 that increases the amounts of GM1 expression in the striatum and the substantia nigra will provide neuroprotective effects.

[1] = cited from earlier work
[2] = hES cells differentiated to dopaminergic phenotype

Compound	total DA uptake (3H-DA) (DA uptake)	striatal dopamine levels (YAC128 mice; HD models, intracranial administration)	mHtt phosphorylation (YAC128 mice; YAC128 mice, infusion pump)	time to normalization of motor function from start of treatment (YAC128 mice; infusion pump, YAC128 mice symptomatic for motor impairment)	change from baseline in score, early effect (PD patients; Early-start vs Delayed-start, Phase I to week 24)	change from baseline in score, later effect (PD patients; Phase II to week 120)	clinical benefit and symptom progression (PD patients; extended GM1 use up to 120 weeks)	improving motor symptoms vs placebo (PD patients; first 24 weeks of the study)	number of tyrosine hydroxylase immunopositive (TH+) cells (DAergic hES cells; 5 and 10 μM doses of MPP+, pretreated 2 hrs)	protection/rescue from MPP+ toxicity (TH+ cells) (DAergic hES cells; [2])	oral bioavailability [1]	bioavailability/penetrance across the blood brain barrier ([1]; systemically administered)	protection/rescue from MPP+ toxicity (TH+ cells) (DAergic hES cells; 0.005 U/mL VCS)
OC1(c2ccc(Cl)cc2)c2ccccc2C2=NCCN21 (centres unmarked) [Mazindol, mazindol]	effectively blocked												
GM1		normalization	phosphorylation of mHtt at serine residues 13 and 16	≤ 2 weeks	early symptomatic effect	later disease modifying effect	sustained clinical benefit and lower than expected symptom progression	superior to placebo	prevented cell loss	mitigated	no oral bioavailability	low	
VCS: Sialidase V purified from Vibrio cholerae; cleaves a2-8 linkages and terminal a2-3 linkages										protect/rescue cells from MPP^+ toxicity			mitigated
